Results as given in US6875448B1, “Method of intracellular sustained-release of drug and preparations” (Chugai Seiyaku Kabushiki Kaisha, priority 1999, dated 2005).

System: Ltk− cells
Assay: Efficiency of introduction into cells with the aid of Ca2+ indicator
Format: cell-based, mouse
Conditions: intracellular calcium elevated by calcium ionophore
Protocol: To the nanospheres (red fluorescent), calcium green-1 acetoxymethyl derivative was added as a fluorescent Ca^2+ indicator to give a concentration of 20 mM and mixed at room temperature for 1 hour so that it was adsorbed on the nanospheres. The unadsorbed calcium green-1 was removed by dialysis (Spectra/Por Membranes MWCO:12-14000) and buffer replacement was performed to prepare liposomes and fusogenic liposomes. 2×10^5 Ltk^−cells that had been seeded on 6-well plates one day before were washed with PBS(−) and exposed for 1 minute to the action of the calcium green-1 acetoxymethyl derivative, calcium green-1 adsorbed nanospheres, liposomes or fusogenic liposomes which were all conditioned to have the same fluorescence intensity of 2700 (Ex. 488 nm; Em, 534 nm). Thereafter, the cells were washed with PBS(−), cultured in an Eagle's MEM medium for 1 hour, stripped from the medium with trypsin and subjected to the measurement of fluorescence intensity (Ex, 488 nm; Em, 534 nm). Thereafter, a calcium ionophore/DMSO solution was added to give a concentration of 0.1 mg/mL and fluorescence intensity was measured at Ex=488 nm and Em=534 nm.

## calcium green-1 acetoxymethyl derivative
  fluorescence of calcium green-1 in cells: barely detectable
